From US20140221225A1, “METHOD FOR OBTAINING A MULTICELLULAR SPHEROID” (Universiteit Leiden, priority 2011, published 2014)
“Also recorded” adds a separate entry of the source.

What was measured:
[1] = test system: 4T1 cells; assay: Proof-of-principle drug screen on automatically injected 4T1 multicellular spheroids in collagen gel, 96 well plate; assay type: cell-based, mouse; settings: for Feret's Diameter (longest distance between any two points along the selection boundary, maximum caliper), averages / Circularity (4π*area/perimeter^2, 1 = perfect circle), averages / Invasion area (area day 4/area day 0), averages: 1:1000 dilution (10 μM); for Feret's Diameter (longest distance between any two points along the selection boundary, maximum caliper), averages / Circularity (4π*area/perimeter^2, 1 = perfect circle), averages: automated analysis of fluorescent actin staining at day 4; for Feret's Diameter (longest distance between any two points along the selection boundary, maximum caliper), averages: Figure 7B, ctrl 0.67, unit assumed; for Circularity (4π*area/perimeter^2, 1 = perfect circle), averages: Figure 7C, ctrl 0.15; for Invasion area (area day 4/area day 0), averages: manual from DIC images at day 0 and day 4, Figure 7A, ctrl 25.88; for Cell migration from 4T1 spheroids: visual inspection / actin images after 4 days, 4, 10, 20 μM
Description: (§1) Cell suspensions derived from trypsin-detached adherent cultures or from collagenase-treated biopsies were filtered to remove clumps, centrifuged at 1000 rpm for 5 minutes, and washed twice with PBS. ˜7×10^6 cells were re-suspended in 30 μl PBS containing 2% polyvinylpyrrolidone (PVP; Sigma-Aldrich). The PVP/cell suspension was loaded into a beveled pulled glass needle (Eppendorf CustomTip Type III, oD [μm] 60, Front surface 40, Flexibility: rigid).
A glass-bottom 96 well plate (Greiner) containing 60 μl solidified collagen gel per well was placed in a motorized stage (MTmot 200×100 MR, Märzhäuser) connected to a controller (Tango, Märzhäuser). A motorized micro-manipulator (Injectman II, Eppendorf) was positioned above the stage and connected to a pump (Femtojet Express, Eppendorf) featuring an external compressor (lubricated compressor, model 3-4, JUN-AIR). A firewire camera (DFK41BF02.H, The Imaging Source) equipped with an 8× macro lens (MR8/O, The Imaging Source) was placed beneath the stage for calibration and imaging. All components were connected to the controlling computer (Ubuntu AMD64). A multi-threaded control program was written in Python using PySerial and wxPython. Coriander software (http://damien.douxchamps.net/ieee1394/coriander) was used for imaging.
After the program was calibrated for the 96 well plate the camera height was adjusted to focus on the bottom of the 96 well plate. The plate was then removed for needle calibration: the injection needle was fixed in the Injectman and moved, using the Injectman controller, into the center of the image. The injection height was set to 200 µm above the bottom of the (virtual) plate. After the needle was moved up, the plate was placed back in position and the upper left well was used for multiple test injections to adjust pump pressure and injection time for optimization of the droplet size (300 µm diameter) using video inspection. Subsequently, using a pre-defined macro defining x-y coordinates and number of injections per well, all wells were injected using the same pressure and injection time.
Differential interference contrast (DIC) images were captured using a charged coupled device (CCD) camera with NIS Image Pro software at 10× dry objective. Quantification of spheroid invasion area was analyzed from DIC images using ImageJ. […] One-way ANOVA was performed to test the significance of the data (p<0.05). The data are presented and plotted as average and standard error of the mean; tables are available in the supplement.
For automated imaging, wells containing gel-embedded spheroids were treated with a fixation and staining cocktail containing 3.7% formaldehyde, 0.2% Triton X-100 (Sigma) and 0.1 μM rhodamine phalloidin (Sigma) for 3 hrs. Wells were washed extensively with PBS and plates were imaged on a Becton Dickinson Pathway 855 using a 4× lens. A montage of 12 frames was made for each Z plane, with a total of 24 Z planes at an interval of 50 μm. Image stacks were converted into 2D maximum fluorescence intensity projections using ImagePro 7.0. MS were then digitally segmented using ImageJ to identify the outline of individual spheroids and multiple parameters were measured, including spheroid Feret's diameter, roundness, and number of spheroids scored in each well.
LY-294002 (phosphatidylinositol 3-kinase), JSI-124-cucurbitacin (STAT3/Jak2), and NSC23766 (Rac1) were purchased from Merck/CalBiochem. PP2 (Src) and ML-7 (MLC kinase) were purchased from ENZO. Y-27632 (Rock) and SB-431542 (TGFb) were purchased from BioMol Tocris. AG1478 (EGFR) was purchased from BioMol and AG-82 (general protein tyrosine kinases) was purchased from Calbiochem. Cell migration was analyzed in the absence and presence of inhibitors for 4 days.
A proof of principle drug screen was performed to test the applicability of this procedure to automated high-throughput drug screening assays (HTS). […]

[2] = test system: Chondrosarcoma; assay: Inhibitor treatment of spheroids from fresh human chondrosarcoma biopsy in collagen gel; assay type: cell-based; settings: lowest collagen concentration 1.0 mg/ml; bright-field images after 6 days; treatment from 1 day post-injection
Excerpt: (§2) FIG. 9: Spheroids obtained from two fresh human biopsies. […] The lowest concentration, row G, triggers the largest migration in Chondrosarcoma as well (G5) while the type of migration remains the same between the row F and row G (see F4, G5). […] Scale=100 μm.
(§3) Human biopsy material was obtained from surplus material from patients that were surgically treated for chondrosarcoma or osteosarcoma. Tumor cell suspensions were derived from biopsies by overnight collagenase treatment at room temperature.
as §1
(§4) Next, cell suspensions were derived from freshly isolated human biopsies of osteosarcoma and chondrosarcoma and injected in gels containing three different collagen concentrations. MS readily formed from these human biopsies and survival and migration could be studied for up to 1 week with the two tumor types showing distinct migratory behavior (FIG. 9). […] MS were treated with the range of compounds described above starting 1 day post-injection. […] Thus, the automated MS injection methodology has the potential to be used for large scale screening for the drug sensitivity spectrum of tumor cells freshly isolated from individual patients.

[3] = test system: Osteosarcoma; assay: Inhibitor treatment of spheroids from fresh human osteosarcoma biopsy in collagen gel; assay type: cell-based; settings: lowest collagen concentration 1.0 mg/ml; bright-field images after 6 days; treatment from 1 day post-injection
Excerpt: as §2, §3, §1, §4

## N#CC(C#N)=Cc1cc(O)c(O)c(O)c1 [AG-82]
[1]
  Feret's Diameter (longest distance between any two points along the selection boundary, maximum caliper), averages: 0.46 mm
  Circularity (4π*area/perimeter^2, 1 = perfect circle), averages: 0.24
  Invasion area (area day 4/area day 0), averages: 20.96

## COc1cc2ncnc(Nc3cccc(Cl)c3)c2cc1OC [AG1478]
[1]
  Feret's Diameter (longest distance between any two points along the selection boundary, maximum caliper), averages: 0.56 mm
  Circularity (4π*area/perimeter^2, 1 = perfect circle), averages: 0.19
  Invasion area (area day 4/area day 0), averages: 25.75
[2]
  Migration of Chondrosarcoma spheroids: block migration completely; also recorded: effectively inhibited migration
[3]
  Migration of Osteosarcoma spheroids: block migration; also recorded: effectively inhibited migration

## O=c1cc(N2CCOCC2)oc2c(-c3ccccc3)cccc12 [LY-294002]
[1]
  Feret's Diameter (longest distance between any two points along the selection boundary, maximum caliper), averages: 0.38 mm
  Circularity (4π*area/perimeter^2, 1 = perfect circle), averages: 0.26
  Invasion area (area day 4/area day 0), averages: 14.91

## C[C@@H](N)[C@H]1CC[C@H](C(=O)Nc2ccncc2)CC1 [Y-27632]
[1]
  Feret's Diameter (longest distance between any two points along the selection boundary, maximum caliper), averages: 0.41 mm
  Circularity (4π*area/perimeter^2, 1 = perfect circle), averages: 0.35
  Invasion area (area day 4/area day 0), averages: 16.86
[2]
  Migration of Chondrosarcoma spheroids: stimulates migration
[3]
  Migration of Osteosarcoma spheroids: stimulates migration

## CCN(CC)CCCC(C)Nc1nc(C)cc(Nc2ccc3nc(C)cc(N)c3c2)n1 (centres unmarked) [NSC23766]
[1]
  Feret's Diameter (longest distance between any two points along the selection boundary, maximum caliper), averages: 0.37 mm
  Circularity (4π*area/perimeter^2, 1 = perfect circle), averages: 0.29
  Invasion area (area day 4/area day 0), averages: 17.51

## CC(C)(C)n1nc(-c2ccc(Cl)cc2)c2c(N)ncnc21 [PP2]
[1]
  Feret's Diameter (longest distance between any two points along the selection boundary, maximum caliper), averages: 0.55 mm
  Circularity (4π*area/perimeter^2, 1 = perfect circle), averages: 0.19
  Invasion area (area day 4/area day 0), averages: 22.48
[2]
  Migration of Chondrosarcoma spheroids: reduces migration; also recorded: effectively inhibited migration
[3]
  Migration of Osteosarcoma spheroids: block migration; also recorded: effectively inhibited migration

## O=S(=O)(c1cccc2c(I)cccc12)N1CCCNCC1 [ML-7]
[1]
  Invasion area (area day 4/area day 0), averages: 1.09
  Cell migration from 4T1 spheroids: Effects on cell migration could be clearly observed
[1]; rhodamine phalloidin actin fluorescence, 4 days treatment
  Cell survival in 4T1 spheroids: did not survive the treatment; also recorded: affected cell survival
[2]
  Migration of Chondrosarcoma spheroids: block migration completely; also recorded: effectively inhibited migration
[3]
  Migration of Osteosarcoma spheroids: block migration; also recorded: effectively inhibited migration

## NC(=O)c1ccc(-c2nc(-c3ccc4c(c3)OCO4)c(-c3ccccn3)[nH]2)cc1 [SB-431542]
[1]
  Feret's Diameter (longest distance between any two points along the selection boundary, maximum caliper), averages: 0.46 mm
  Circularity (4π*area/perimeter^2, 1 = perfect circle), averages: 0.22
  Invasion area (area day 4/area day 0), averages: 16

## CC(C)(O)/C=C/C(=O)[C@](C)(O)[C@H]1[C@H](O)C[C@@]2(C)[C@@H]3CC=C4[C@@H](C=C(O)C(=O)C4(C)C)[C@]3(C)C(=O)C[C@]12C [JSI-124]
[1]
  Feret's Diameter (longest distance between any two points along the selection boundary, maximum caliper), averages: 0.23 mm
  Circularity (4π*area/perimeter^2, 1 = perfect circle), averages: 0.78
  Invasion area (area day 4/area day 0), averages: 1.01
  Cell migration from 4T1 spheroids: Effects on cell migration could be clearly observed; also recorded: blocked migration, but left the MS intact
[2]
  Migration of Chondrosarcoma spheroids: block migration completely; also recorded: effectively inhibited migration
[3]
  Migration of Osteosarcoma spheroids: block migration; also recorded: effectively inhibited migration
